Values after ≈ are worked out from the molar mass of the structure shown. Positions of bridges follow the written chain, without caps; N, C: chain ends. Non-standard residues stand in square brackets, D forms with d. Residues, ends and D or L forms follow the SMILES beside them. S5 = C=CCCC[C@](C)(N)C(=O)O
What was measured:
[1] = test system: K. pneumoniae; settings: 24 h
Protocol: (§1) According to the protocol of Clinical & Laboratory Standards Institute, the minimum inhibitory concentration (MIC) of the linear and stapled peptides against a panel of gram-positive and gram-negative bacteria was determined by the broth microdilution method. […]
(§2) Bacterial strains and culture
(§3) Bacterial type stains ATCC 25923 S. aureus, ATCC 12228 S. epidermidis, ATCC […]
(§4) aeruginosa and ATCC 13883 K. pneumoniae were obtained from Shanghai Bioresource Collection Center. The bacterial culture medium was purchased from Oxoid and autoclaved according to the instructions from manufacturer. The isolated strains were cultured in Mueller Hinton II broth and continuously shaken at 140 rpm for 18 hours to the middle of the exponential growth phase at 37 °C with an OD value of 0.4-0.5.
(§5) Bacterial suspensions with an OD value of 0.1, approximately […], were then diluted for further assays.
(§6) The minimal inhibition concentration (MIC) of the linear and stapled peptides was determined using the microbroth dilution method from the Clinical and Laboratory Standards Institute (CLSI)[2, 3]. Bacterial suspensions of 10 6 CFU/mL were prepared in MH-II broth and peptide solutions at varying concentrations were prepared in phosphate buffer saline (PBS). Then 50 μL peptide solution and 50 μL bacterial suspension were mixed in a 96 -well plate. Plates were incubated for 24 hours at 37 °C.
(§7) 10 μL AlamarBlue cell viability reagent (ThermoFisher Scientific, UK) was added to each well, then the plate was re -incubated for a further 2 hours at 37 °C. The MIC was recorded as the minimum concentration of peptides required to completely in hibit bacteria growth. For serum stability assessment, the peptide solutions were pre - incubated with 50% human serum for 4 h before the MIC determination. Experiments were performed in 3 independent measurements. […]

[2] = test system: A. baumannii; settings: 24 h
Protocol: as §1, §2, §3, §4, §5, §6, §7

[3] = test system: E. faecalis; settings: 24 h
Protocol: as §1, §2, §3, §4, §5, §6, §7

[4] = test system: S. aureus; settings: 24 h
Protocol: as §1, §2, §3, §4, §5, §6, §7

[5] = test system: E. coli; settings: 24 h
Protocol: as §1, §2, §3, §4, §5, §6, §7

[6] = test system: S. epidermidis; settings: 24 h
Protocol: as §1, §2, §3, §4, §5, §6, §7

[7] = test system: P. aeruginosa; settings: 24 h
Protocol: as §1, §2, §3, §4, §5, §6, §7

[8] = test system: NIH-3T3 cell; settings: 24 h
Protocol: For development of the stapled KR-12 derivatives to treat bacterial infections in vivo, their cytotoxicity was examined via the CCK-8 assay, which could provide a quantitative assessment of cell viability based on the dehydrogenase activity. The mouse embryonic fibroblast NIH-3T3 cell was selected and incubated with various concentrations of KR-12 and its stapled derivatives.
Mouse embryonic fibroblast cells NIH-3T3 and mouse monocyte macrophage leukemia cells RAW264.7 were obtained from Shanghai Institute of Biochemistry and Cell Biology, Chinese Academy of Sciences. These two cells were maintained in DMEM and RPMI-1640, respectively. Both media were supplemented with 10% FBS and 1% 100 U/mL penicillin-streptomycin solution. Cells were maintained at 37 °C in a 5% CO2 and humidified incubator. Replace the culture medium every day until the cell grows to confluence. Cells were then treated with 0.25% trypsin–EDTA and split using fresh medium for either passage or analysis.
CCK-8 cell counting kit was utilized to examine the cytotoxicity of the linear and stapled peptides. NIH-3T3 cell was planked at a density of 1.5×10^4 cell/well in a 96 - well plate and incubated it for 24 hours at 37 °C. Cells were then treated with different concentrations of peptides in fresh DMEM and incubated for 24 hours before the addition of 10 μL CCK -8 and incubation for a further 1 hour. Measure the absorbance at 450nm using a microplate reader (BioTek, USA) and calculate the percentage of cell viability as: cell viability (%) = (Abspeptide-Absblank)/(Abscontrol-Absblank)×100%, where Abscontrol is the absorbance of cells treated with PBS and Abs blank is the absorbance of the cell-free medium. The data was fitted using the nonlinear regression within

[9] = Serum stability assay; format: in vitro ADME, human; settings: human serum, 2 mg/mL peptide in pH 7.4 PBS mixed with serum 1:4, 37 °C, up to 48 h, RP-HPLC UV 220 nm, 3 independent measurements
From the text: Maintaining high stability and presenting high compatibility in the complex physiological environment are important criterions for the clinical translation of AMPs. […] The derivatives were mixed with human serum in pH 7.4 PBS, simulating the degradation process of peptides by proteases in vivo. The percentages of intact derivatives were monitored and determined with time according to the PR-HPLC. […]
Serum stability of the linear and stapled peptides was examined by RP -HPLC as previously described. 2 mg/mL peptide solution was prepared in pH 7.4 PBS and incubated with human serum (Gemini, USA) to the final volume ratio of 1:4 at 37 °C.
At various time intervals, 50 μL mixture was added to 50 μL ethanol to terminate the enzymatic hydrolysis. After centrifugation at 10,000 rpm for 10 minutes under 4 °C, […]
the supernatant was collected and analyzed by RP-HPLC, with a UV detector monitored at 220 nm. Record the peak area of the intact peptide and calculate the percentage of remaining peptide based on the integrated area as, Peptide remaining (%) = peak area of remaining peptide/peak area of intact peptide×100%. […]

Row | Structure (SMILES) | MIC K. pneumoniae [1] [µg/mL] | MIC A. baumannii [2] [µg/mL] | MIC E. faecalis [3] [µg/mL] | MIC S. aureus [4] [µg/mL] | MIC E. coli [5] [µg/mL] | MIC S. epidermidis [6] [µg/mL] | MIC P. aeruginosa [7] [µg/mL] | IC50 against NIH-3T3 cell [8] [µg/mL] | TD50 (time at which 50% of the peptide is degraded in the presence of serum) [9] [h]
1 | CC[C@H](C)[C@H](NC(=O)[C@H](CCCNC(=N)N)NC(=O)[C@H](CCCCN)NC(C)=O)C(=O)N[C@H](C(=O)N[C@@H](CCC(N)=O)C(=O)N[C@@H](CCCNC(=N)N)C(=O)N[C@@]1(C)CCCC=CCCC[C@@](C)(C(=O)N[C@@H](CCCNC(=N)N)C(N)=O)NC(=O)[C@H](Cc2ccccc2)NC(=O)[C@H](CC(=O)O)NC(=O)[C@H](CCCCN)NC1=O)C(C)C [KR-12 (I7, L11)] (Ac-KRIVQR[S5]KDF[S5]R-NH2; staple 7-11) | 256 (≈ 156 µM) | 64 (≈ 39.1 µM) | 32 (≈ 19.5 µM) | 32 (≈ 19.5 µM) | 32 (≈ 19.5 µM) | 128 (≈ 78.2 µM) | 256 (≈ 156 µM) | 212.8 (≈ 130 µM) | 11.44
2 | CC[C@H](C)[C@H](NC(=O)[C@]1(C)CCCC=CCCC[C@](C)(NC(=O)[C@H](CCCCN)NC(C)=O)C(=O)N[C@@H]([C@@H](C)CC)C(=O)N[C@@H](C(C)C)C(=O)N[C@@H](CCC(N)=O)C(=O)N1)C(=O)N[C@@H](CCCCN)C(=O)N[C@@H](CC(=O)O)C(=O)N[C@@H](Cc1ccccc1)C(=O)N[C@@H](CC(C)C)C(=O)N[C@@H](CCCNC(=N)N)C(N)=O [KR-12 (R2, R6)] (Ac-K[S5]IVQ[S5]IKDFLR-NH2; staple 2-6) | > 256 | > 256 | 128 (≈ 82.5 µM) | 128 (≈ 82.5 µM) | >256 | 128 (≈ 82.5 µM) | > 256 | 78.3 (≈ 50.5 µM) | 2.38
3 | CC(=O)N[C@@H](CCCCN)C(=O)N[C@@H](CCCNC(=N)N)C(=O)N[C@@]1(C)CCCC=CCCC[C@@](C)(C(=O)N[C@@H](CCCCN)C(=O)N[C@@H](CC(=O)O)C(=O)N[C@@H](Cc2ccccc2)C(=O)N[C@@H](CC(C)C)C(=O)N[C@@H](CCCNC(=N)N)C(N)=O)NC(=O)[C@H](CCCNC(=N)N)NC(=O)[C@H](CCC(N)=O)NC(=O)[C@H](C(C)C)NC1=O [KR-12 (I3, I7)] (Ac-KR[S5]VQR[S5]KDFLR-NH2; staple 3-7) | 128 (≈ 78.2 µM) | 32 (≈ 19.5 µM) | 16 (≈ 9.77 µM) | 8 (≈ 4.89 µM) | 16 (≈ 9.77 µM) | 64 (≈ 39.1 µM) | 256 (≈ 156 µM) | 145.7 (≈ 89 µM) | 4.21
4 | CC[C@H](C)[C@@H]1NC(=O)[C@H](CCCNC(=N)N)NC(=O)[C@@](C)(NC(=O)[C@@H](NC(=O)[C@@H](NC(=O)[C@H](CCCNC(=N)N)NC(=O)[C@H](CCCCN)NC(C)=O)[C@@H](C)CC)C(C)C)CCCC=CCCC[C@@](C)(C(=O)N[C@@H](Cc2ccccc2)C(=O)N[C@@H](CC(C)C)C(=O)N[C@@H](CCCNC(=N)N)C(N)=O)NC(=O)[C@H](CCCCN)NC1=O [KR-12 (Q5, D9)] (Ac-KRIV[S5]RIK[S5]FLR-NH2; staple 5-9) | 128 (≈ 79 µM) | 16 (≈ 9.88 µM) | 8 (≈ 4.94 µM) | 8 (≈ 4.94 µM) | 8 (≈ 4.94 µM) | 16 (≈ 9.88 µM) | 64 (≈ 39.5 µM) | 168.5 (≈ 104 µM) | 8.91

From publication PMC10845205, “Discovery of novel antibacterial agent for the infected wound treatment: all-hydrocarbon stapling optimization of LL-37” (Theranostics, 2024)
